The source of these data is patent EP0597838B1, “VACCINE COMPOSITIONS” (NORTH AMERICAN VACCINE, INC., priority 1990, dated 1991).

The test system of test [1] is hepatitis B surface antigen. As to the kind of experiment: Antibody response to hepatitis B surface antigen with octadecyl amino acid immunoadjuvants, radioimmunoassay of sera. Format: in vivo, BALB/c mice. The conditions noted are these: 50 ng HBsAg i.m. day 1, boost 35 ng day 21, 100 µg octadecyl amino acid. How it is done: BALB/c mice were immunized with 50 ng of hepatitis B surface antigen in the presence of adjuvant for the non-control mice and in the absence of adjuvant for the control mice. The hepatitis B surface antigen was obtained from 3T3 cells transfected with the gene for the surface antigen. 100 µg of octadecyl amino acid was complexed with the polypeptide as described in Example 2. This mixture, in a total volume of 0.1 ml, was injected on day 1 using an intramuscular route, and the mice were bled on days 7, 14, 21, 28, 35, 42 and 61. The mice were boosted with 35 ng of the polypeptide on day 21.
The antibody concentration in the sera was determined by radioimmunoassay. The antibody concentration was estimated by comparison with a standard curve obtained using a monoclonal antibody.

Another test deals with HIV-1 polypeptide. As to the kind of experiment: Antibody response to HIV-1 polypeptide in baboons with octadecyl tyrosine hydrochloride, radioimmunoassay. The class given is in vivo. How it is done: 3) Experiments in baboons Two baboons were immunized with 300 µg of chemically synthesized polypeptide, corresponding to the amino acid sequence of residues 503-535 of HIV-1, coupled to Keyhole Limpet Hemocyanin. 500 µg of octadecyl tyrosine hydrochloride was complexed with the polypeptide, as described in Example 2. This mixture in a total volume of 1.0 ml was injected on day 1 and again on day 35. The animals were bled 3 days before the first immunization, and on days 14, 32 and 49. The same experiment was undertaken with another two baboons, but with polypeptide corresponding to the amino acid sequence 526-535 of HIV-1. The antibody concentration in the sera was indirectly measured by radioimmunoassay. Tiltration was undertaken by incubation of samples on plates coated with peptide-albumin conjugate, and reaction with iodine-125 labelled rabbit anti-monkey immunoglobulin.

As to `CCCCCCCCCCCCCCCCCCOC(=O)CCN`, the Anti-HBsAg antibody concentration in test [1] (day 7) was determined as 31 ng/mL; in test [1] (day 14), 45 ng/mL; in test [1] (day 21), 44 ng/mL; in test [1] (day 28) it was 120 ng/mL; in test [1] (day 35), 337 ng/mL; in test [1] (day 61), 373 ng/mL.
In the case of Octadecyl Forphenicinol, the Anti-HBsAg antibody concentration turned out to be 31 ng/mL in test [1] (day 7); 40 ng/mL in test [1] (day 14); 26 ng/mL in test [1] (day 21); 65 ng/mL in test [1] (day 28); 306 ng/mL in test [1] (day 35); 98 ng/mL in test [1] (day 61).
For `CCCCCCCCCCCCCCCCCCOC(=O)C(N)CCCCN` (centres unmarked) [Octadecyl Lysine], the Anti-HBsAg antibody concentration was 33 ng/mL in test [1] (day 7); 55 ng/mL in test [1] (day 14); 39 ng/mL in test [1] (day 21); 51 ng/mL in test [1] (day 28); 67 ng/mL in test [1] (day 35); 53 ng/mL in test [1] (day 61).
Take Octadecyl Forphenicine: the Anti-HBsAg antibody concentration in test [1] (day 7) is 100 ng/mL; in test [1] (day 14), 112 ng/mL; in test [1] (day 21), 116 ng/mL; in test [1] (day 28) it was 908 ng/mL; in test [1] (day 35), 592 ng/mL; in test [1] (day 61), 355 ng/mL.
For “H-Val-Ala-Pro-Thr-Lys-Ala-Lys-Arg-Arg-Val-Val-Gln-Arg-Glu-Lys-Arg-Ala-Val-Gly-Ile-Gly-Ala-Leu-Phe-Leu-Gly-Phe-Leu-Gly-Ala-Ala-Gly-Ser- (VAPTKAKRRVVQREKRAVGIGALFLGFLGAAGS; printed: Val-Ala-Pro-Thr-Lys-Ala-Lys-Arg-Arg-Val-Val-Gln-Arg-Glu-Lys-Arg-Ala-Val-Gly-Ile-Gly-Ala-Leu-Phe-Leu-Gly-Phe-Leu-Gly-Ala-Ala-Gly-Ser-) [503-535]”, the “Antibody response to HIV-1 polypeptide” value came out at 2004 CPM in the test on HIV-1 polypeptide (ANIMAL 1, day 14, 300 µg polypeptide-KLH + 500 µg octadecyl tyrosine hydrochloride on day 1 and 35, background subtracted); 2185 CPM in the test with HIV-1 polypeptide (ANIMAL 1, day 32, 300 µg polypeptide-KLH + 500 µg octadecyl tyrosine hydrochloride on day 1 and 35, background subtracted); 5948 CPM with HIV-1 polypeptide (ANIMAL 1, day 49, 300 µg polypeptide-KLH + 500 µg octadecyl tyrosine hydrochloride on day 1 and 35, background subtracted); 1020 CPM in the test on HIV-1 polypeptide (ANIMAL 1, day -3 (bled before the first immunization), after subtraction of background on bovine serum albumin coated plates); 2160 CPM in the test on HIV-1 polypeptide (ANIMAL 2, day 14, 300 µg polypeptide-KLH + 500 µg octadecyl tyrosine hydrochloride on day 1 and 35, background subtracted); 2121 CPM in the test on HIV-1 polypeptide (ANIMAL 2, day 32, 300 µg polypeptide-KLH + 500 µg octadecyl tyrosine hydrochloride on day 1 and 35, background subtracted). In addition, the “Antibody response to HIV-1 polypeptide” value with HIV-1 polypeptide (ANIMAL 2, day 49, 300 µg polypeptide-KLH + 500 µg octadecyl tyrosine hydrochloride on day 1 and 35, background subtracted) worked out at 4470 CPM; in the test on HIV-1 polypeptide (ANIMAL 2, day -3 (bled before the first immunization), after subtraction of background on bovine serum albumin coated plates), 1530 CPM.
For the compound `CCCCCCCCCCCCCCCCCCOC(=O)C1CCCN1` (centres unmarked), the Anti-HBsAg antibody concentration was 49 ng/mL in test [1] (day 7); 35 ng/mL in test [1] (day 14); 41 ng/mL in test [1] (day 21); 72 ng/mL in test [1] (day 28); 409 ng/mL in test [1] (day 35); 168 ng/mL in test [1] (day 61).
With `CCCCCCCCCCCCCCCCCCOC(=O)C(N)CC(C)C` (centres unmarked), the Anti-HBsAg antibody concentration in test [1] (day 7) is 48 ng/mL; in test [1] (day 14), 42 ng/mL; in test [1] (day 21), 37 ng/mL; in test [1] (day 28), 160 ng/mL; in test [1] (day 35), 590 ng/mL; in test [1] (day 61) it was 496 ng/mL.
As for `CCCCCCCCCCCCCCCCCCOC(=O)CN`, the Anti-HBsAg antibody concentration is 47 ng/mL in test [1] (day 7); 38 ng/mL in test [1] (day 14); 51 ng/mL in test [1] (day 21); 147 ng/mL in test [1] (day 28); 748 ng/mL in test [1] (day 35); 301 ng/mL in test [1] (day 61).
